Source: US20250215029A1 (Recludix Pharma, Inc., priority 2022, published 2025)
pIC50: −log10 of the molar value.

Columns and labels:
[1] = molecular target: T1, Recombinant STAT6 protein (STAT6 (W123-T658)) (Homo sapiens, UniProt P42226); experiment: STAT6 Fluorescence Polarization (FP) Assay; assay type: binding; conditions: STAT6 (W123-T658) 250 nM, probe 5-FAM-Ap[…]-NH2 2 nM, 45-minute incubation; read-out: STAT6 (FP assay IC50 class)
T1 construct: Recombinant STAT6 protein (STAT6 (W123-T658))
T1 sequence (P42226 123-658): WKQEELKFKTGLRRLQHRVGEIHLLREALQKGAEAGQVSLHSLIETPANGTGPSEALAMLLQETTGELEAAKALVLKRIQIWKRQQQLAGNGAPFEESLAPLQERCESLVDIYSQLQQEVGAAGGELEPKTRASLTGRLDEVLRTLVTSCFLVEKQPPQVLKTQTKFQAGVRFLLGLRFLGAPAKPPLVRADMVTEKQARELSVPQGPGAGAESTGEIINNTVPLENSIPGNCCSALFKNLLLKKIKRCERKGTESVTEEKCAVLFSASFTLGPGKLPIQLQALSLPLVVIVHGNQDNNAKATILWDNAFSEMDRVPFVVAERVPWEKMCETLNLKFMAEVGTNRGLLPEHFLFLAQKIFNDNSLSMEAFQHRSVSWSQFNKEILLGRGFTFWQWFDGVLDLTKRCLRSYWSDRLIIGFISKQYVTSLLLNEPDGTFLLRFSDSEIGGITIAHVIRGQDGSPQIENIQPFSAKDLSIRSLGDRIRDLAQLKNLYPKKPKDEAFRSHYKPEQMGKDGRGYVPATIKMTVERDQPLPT
Outline: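 Serially diluted compounds received a premix of STAT6 (W123-T658, 250 nM) and 5-FAM peptide probe (2 nM) in pH 7.4 HEPES buffer containing DTT and Tween 20. Following 45 min at room temperature, FP was recorded. IC50s were fitted by nonlinear regression; values are binned A (≤300 nM), B (>300-3000 nM), C (>3-30 μM), D (>30 μM).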

[2] = molecular target: T2, Recombinant STAT3 protein (STAT3 (G127-I722)) (Homo sapiens, UniProt P40763); experiment: STAT3 Fluorescence Polarization (FP) Assay; assay type: binding; conditions: STAT3 (G127-I722) 25 nM, probe 5-FAM-GpYLPQTV-NH2 2 nM, 45-minute incubation; read-out: STAT3 (FP assay IC50 class)
T2 construct: Recombinant STAT3 protein (STAT3 (G127-I722))
Outline: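 Displacement of a fluorescent phosphotyrosine peptide (5-FAM-GpYLPQTV-NH2, 2 nM) from 25 nM recombinant STAT3 G127-I722 was monitored by FP after 45 min at room temperature.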

T2 sequence (P40763 127-722): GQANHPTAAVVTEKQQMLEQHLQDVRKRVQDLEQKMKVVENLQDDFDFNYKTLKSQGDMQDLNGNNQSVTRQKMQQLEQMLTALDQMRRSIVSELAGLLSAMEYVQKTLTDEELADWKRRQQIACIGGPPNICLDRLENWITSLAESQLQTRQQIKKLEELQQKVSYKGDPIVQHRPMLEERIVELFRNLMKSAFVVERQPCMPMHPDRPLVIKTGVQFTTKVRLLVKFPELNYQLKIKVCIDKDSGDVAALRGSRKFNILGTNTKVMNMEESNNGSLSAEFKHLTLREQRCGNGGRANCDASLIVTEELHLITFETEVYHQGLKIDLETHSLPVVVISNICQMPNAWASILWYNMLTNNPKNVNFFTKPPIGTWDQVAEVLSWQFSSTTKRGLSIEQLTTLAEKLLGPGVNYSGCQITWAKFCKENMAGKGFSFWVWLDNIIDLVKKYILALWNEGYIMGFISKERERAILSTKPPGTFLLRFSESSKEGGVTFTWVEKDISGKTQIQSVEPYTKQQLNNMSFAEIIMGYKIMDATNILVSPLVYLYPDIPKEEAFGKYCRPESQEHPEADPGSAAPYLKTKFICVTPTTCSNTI

SMILES	pIC50 [1]	pIC50 [2]
N#Cc1nccc(C2CN(C(=O)[C@@H]3CC[C@@H]4CCC[C@H](NC(=O)c5cc6cc(CP(=O)(O)O)ccc6s5)C(=O)N43)C2)n1 [Compound 515, ((2-(((3S,6S,9aS)-3-(3-(2-cyanopyrimidin-4-yl)azetidine-1-carbonyl)-5-oxooctahydro-1H-pyrrolo[1,2-a]azepin-6-yl)carbamoyl)benzo[b]thiophen-5-yl)methyl)phosphonic acid]	4.52 to 5.52	5.00 to 6.00
O=C(N[C@H]1CCCC[C@H]2CC[C@@H](C(=O)N3CC(c4cnccc4-c4ccccc4)C3)N2C1=O)c1cc2cc(C(F)(F)P(=O)(O)O)ccc2s1 [Compound 516, (difluoro(2-(((3S,6S,10aS)-5-oxo-3-(3-(4-phenylpyridin-3-yl)azetidine-1-carbonyl)decahydropyrrolo[1,2-a]azocin-6-yl)carbamoyl)benzo[b]thiophen-5-yl)methyl)phosphonic acid]	5.52 to 6.52	> 7.00
O=C(N[C@H]1CCC[C@H]2CC[C@@H](C(=O)N3CC(c4cnccc4C4CC4)C3)N2C1=O)c1cc2cc(CP(=O)(O)O)ccc2s1 [Compound 517, ((2-(((3S,6S,9aS)-3-(3-(4-cyclopropylpyridin-3-yl)azetidine-1-carbonyl)-5-oxooctahydro-1H-pyrrolo[1,2-a]azepin-6-yl)carbamoyl)benzo[b]thiophen-5-yl)methyl)phosphonic acid]	4.52 to 5.52	6.00 to 7.00
O=C(N[C@H]1CCCC[C@H]2CC[C@@H](C(=O)N3CC(c4cncc(-c5ccccc5)c4)C3)N2C1=O)c1cc2cc(C(F)(F)P(=O)(O)O)ccc2s1 [Compound 518, (difluoro(2-(((3S,6S,10aS)-5-oxo-3-(3-(5-phenylpyridin-3-yl)azetidine-1-carbonyl)decahydropyrrolo[1,2-a]azocin-6-yl)carbamoyl)benzo[b]thiophen-5-yl)methyl)phosphonic acid]	4.52 to 5.52	6.00 to 7.00
O=C(N[C@H]1CCC[C@H]2CC[C@@H](C(=O)N3CC(c4cnccc4Cl)C3)N2C1=O)c1cc2cc(CP(=O)(O)O)ccc2s1 [Compound 519, ((2-(((3S,6S,9aS)-3-(3-(4-chloropyridin-3-yl)azetidine-1-carbonyl)-5-oxooctahydro-1H-pyrrolo[1,2-a]azepin-6-yl)carbamoyl)benzo[b]thiophen-5-yl)methyl)phosphonic acid]	4.52 to 5.52	5.00 to 6.00
N#Cc1ccncc1C1CN(C(=O)[C@@H]2CC[C@@H]3CCC[C@H](NC(=O)c4cc5cc(CP(=O)(O)O)ccc5s4)C(=O)N32)C1 [Compound 520, ((2-(((3S,6S,9aS)-3-(3-(4-cyanopyridin-3-yl)azetidine-1-carbonyl)-5-oxooctahydro-1H-pyrrolo[1,2-a]azepin-6-yl)carbamoyl)benzo[b]thiophen-5-yl)methyl)phosphonic acid]	4.52 to 5.52	5.00 to 6.00
O=C(N[C@H]1CCCC[C@H]2CC[C@@H](C(=O)NCc3cnc4[nH]cnc4c3)N2C1=O)c1cc2cc(C(F)P(=O)(O)O)ccc2s1 (stereo partly drawn) [Compound 521, ((2-(((3S,6S,10aS)-3-(((3H-imidazo[4,5-b]pyridin-6-yl)methyl)carbamoyl)-5-oxodecahydropyrrolo[1,2-a]azocin-6-yl)carbamoyl)benzo[b]thiophen-5-yl)fluoromethyl)phosphonic acid]	4.52 to 5.52	> 7.00
N#Cc1cccc(C2CN(C(=O)[C@@H]3CC[C@@H]4CCC[C@H](NC(=O)c5cc6cc(C(F)P(=O)(O)O)ccc6s5)C(=O)N43)C2)n1 (some centres unmarked) [Compound 526]	4.52 to 5.52	> 7.00

Continued, values first:

pIC50 [1]	pIC50 [2]	SMILES
5.52 to 6.52	5.00 to 6.00	COC(=O)N1CC[C@@H](NC(=O)[C@@H]2CC[C@@H]3CCCC[C@H](NC(=O)c4cc5cc(C(F)P(=O)(O)O)ccc5s4)C(=O)N32)C1 (stereo partly drawn) [Compound 522, (fluoro(2-(((3S,6S,10aS)-3-(((R)-1-(methoxycarbonyl)pyrrolidin-3-yl)carbamoyl)-5-oxodecahydropyrrolo[1,2-a]azocin-6-yl)carbamoyl)benzo[b]thiophen-5-yl)methyl)phosphonic acid]
4.52 to 5.52	5.00 to 6.00	COC(=O)N1CC(NC(=O)[C@@H]2CC[C@@H]3CCCC[C@H](NC(=O)c4cc5cc(C(F)P(=O)(O)O)ccc5s4)C(=O)N32)C1 (some centres unmarked) [Compound 523]
5.52 to 6.52	6.00 to 7.00	O=C(N[C@H]1CCCC[C@H]2CC[C@@H](C(=O)NC3CN(C(=O)OCc4ccccc4)C3)N2C1=O)c1cc2cc(C(F)P(=O)(O)O)ccc2s1 (stereo partly drawn) [Compound 524, ((2-(((3S,6S,10aS)-3-((1-((benzyloxy)carbonyl)azetidin-3-yl)carbamoyl)-5-oxodecahydropyrrolo[1,2-a]azocin-6-yl)carbamoyl)benzo[b]thiophen-5-yl)fluoromethyl)phosphonic acid]
5.52 to 6.52	5.00 to 6.00	COC(=O)N1C[C@H](NC(=O)[C@@H]2CC[C@@H]3CCCC[C@H](NC(=O)c4cc5cc(C(F)P(=O)(O)O)ccc5s4)C(=O)N32)[C@@H](F)C1 (stereo partly drawn) [Compound 525, (fluoro(2-(((3S,6S,10aS)-3-(((3S,4S)-4-fluoro-1-(methoxycarbonyl)pyrrolidin-3-yl)carbamoyl)-5-oxodecahydropyrrolo[1,2-a]azocin-6-yl)carbamoyl)benzo[b]thiophen-5-yl)methyl)phosphonic acid]
5.52 to 6.52	5.00 to 6.00	O=C(N[C@H]1CCCC[C@H]2CC[C@@H](C(=O)N[C@@H]3CCN(C(=O)OC4CC4)C3)N2C1=O)c1cc2cc(C(F)P(=O)(O)O)ccc2s1 (stereo partly drawn) [Compound 527, ((2-(((3S,6S,10aS)-3-(((R)-1-(cyclopropoxycarbonyl)pyrrolidin-3-yl)carbamoyl)-5-oxodecahydropyrrolo[1,2-a]azocin-6-yl)carbamoyl)benzo[b]thiophen-5-yl)fluoromethyl)phosphonic acid]
5.52 to 6.52	5.00 to 6.00	O=C(N[C@H]1CCCC[C@H]2CC[C@@H](C(=O)NC3CN(C(=O)OC4CC4)C3)N2C1=O)c1cc2cc(C(F)P(=O)(O)O)ccc2s1 (stereo partly drawn) [Compound 528, ((2-(((3S,6S,10aS)-3-((1-(cyclopropoxycarbonyl)azetidin-3-yl)carbamoyl)-5-oxodecahydropyrrolo[1,2-a]azocin-6-yl)carbamoyl)benzo[b]thiophen-5-yl)fluoromethyl)phosphonic acid]
4.52 to 5.52	6.00 to 7.00	CN(C)C(=O)N1CC[C@@H](NC(=O)[C@@H]2CC[C@@H]3CCCC[C@H](NC(=O)c4cc5cc(C(F)P(=O)(O)O)ccc5s4)C(=O)N32)C1 (stereo partly drawn) [Compound 529, ((2-(((3S,6S,10aS)-3-(((R)-1-(dimethylcarbamoyl)pyrrolidin-3-yl)carbamoyl)-5-oxodecahydropyrrolo[1,2-a]azocin-6-yl)carbamoyl)benzo[b]thiophen-5-yl)fluoromethyl)phosphonic acid]
4.52 to 5.52	6.00 to 7.00	CNC(=O)N1CC[C@@H](NC(=O)[C@@H]2CC[C@@H]3CCCC[C@H](NC(=O)c4cc5cc(C(F)P(=O)(O)O)ccc5s4)C(=O)N32)C1 (stereo partly drawn) [Compound 530, (fluoro(2-(((3S,6S,10aS)-3-(((R)-1-(methylcarbamoyl)pyrrolidin-3-yl)carbamoyl)-5-oxodecahydropyrrolo[1,2-a]azocin-6-yl)carbamoyl)benzo[b]thiophen-5-yl)methyl)phosphonic acid]
4.52 to 5.52	5.00 to 6.00	O=C(N[C@H]1CCC[C@H]2CC[C@@H](C(=O)N[C@@H]3CC[C@H](O)C3)N2C1=O)c1cc2cc(C(F)P(=O)(O)O)ccc2s1 (stereo partly drawn) [Compound 531, (fluoro(2-(((3S,6S,9aS)-3-(((1R,3S)-3-hydroxycyclopentyl)carbamoyl)-5-oxooctahydro-1H-pyrrolo[1,2-a]azepin-6-yl)carbamoyl)benzo[b]thiophen-5-yl)methyl)phosphonic acid]
4.52 to 5.52	> 7.00	NC(=O)N1CC[C@@H](NC(=O)[C@@H]2CC[C@@H]3CCCC[C@H](NC(=O)c4cc5cc(C(F)P(=O)(O)O)ccc5s4)C(=O)N32)C1 (stereo partly drawn) [Compound 532, ((2-(((3S,6S,10aS)-3-(((R)-1-carbamoylpyrrolidin-3-yl)carbamoyl)-5-oxodecahydropyrrolo[1,2-a]azocin-6-yl)carbamoyl)benzo[b]thiophen-5-yl)fluoromethyl)phosphonic acid]
5.52 to 6.52	5.00 to 6.00	Cn1ccc(N2CC[C@@H](NC(=O)[C@@H]3CC[C@@H]4CCCC[C@H](NC(=O)c5cc6cc(C(F)P(=O)(O)O)ccc6s5)C(=O)N43)C2)n1 (stereo partly drawn) [Compound 533, (fluoro(2-(((3S,6S,10aS)-3-(((R)-1-(1-methyl-1H-pyrazol-3-yl)pyrrolidin-3-yl)carbamoyl)-5-oxodecahydropyrrolo[1,2-a]azocin-6-yl)carbamoyl)benzo[b]thiophen-5-yl)methyl)phosphonic acid]
